Data taken from patent US20060252735A1, “Treatment of graft-versus-host disease and leukemia with beclomethasone dipropionate and prednisone” (DOR BioPharma, Inc., priority 2004, published 2006).

Legend:
[1] = tested on: patients with Grade II GVHD with GI symptoms; assay: Phase III randomized, double-blind, placebo-controlled trial: treatment failure with oral BDP plus 10 days of prednisone; assay type: in vivo, human; conditions: for Cumulative events (treatment failures): full analysis set, 62 randomized
Excerpt: The Secondary objectives of the study were:
To be eligible for entry into the study, patients were at least 10 days post allogeneic hematopoietic cell transplantation, have GI symptoms consistent with Grade II GVHD, and had endoscopic evidence of GVHD. The diagnosis of GVHD was confirmed by biopsy of the intestine (esophagus, stomach, small intestine, or colon) or skin. A total of 129 eligible patients were randomized to one of two treatment groups.
(§1) The randomization was stratified by the source of the allograft (two HLA haplotype identical sibling versus all other), and by topical corticosteroid use (yes versus no). All patients received 10 days of prednisone at 1 mg/kg/day (or an equivalent dose of intravenous [IV] corticosteroid). On Study Day 10, patients determined by the investigator to have their GVHD controlled had their prednisone tapered rapidly over 7 days starting on Study Day 11, and received a maintenance prednisone dose of 0.0625 mg/kg/day for the remainder of the study. BDP doses were evenly divided to include equal quantities of the IR and EC formulations administered four times per day.
1. Treatment failure, defined as use of prednisone or equivalent IV corticosteroids at doses higher than stated in protocol, or addition of other immunosuppressant medications.
The primary efficacy endpoint of this two-arm study was the time to treatment failure. The primary efficacy analysis will compare the time to treatment failure through Study Day 50 using a log-rank test controlling for patient randomization stratum. Product-limit estimates for time to failure will be provided for descriptive purposes. The null hypothesis for the log-rank test is that time to failure is homogeneous across the treatment groups.
Secondary analyses of treatment failure compared the treatment groups with respect to proportion of treatment failures and Karnofsky Scale (or Lansky Scale) scores at key time points. The difference in proportion of treatment failures on Study Days 10, 30, 50, 60, and 80 was evaluated using a two-sided Fisher's Exact test of the null hypothesis of no difference between the treatment groups. The difference in Karnofsky Scale (or Lansky Scale) scores at the same time points was evaluated using a two-sided Wilcoxon test to evaluate the null hypothesis of no difference in medians between treatment groups.
On Study Day 10, patients were evaluated for the signs and symptoms of GVHD. Patients in both treatment groups who met the response criterion of adequately controlled GVHD, as judged by the investigator, had their prednisone tapered over 7 days starting on Study Day 11 (Table 2). Starting on Study Day 17, physiologic replacement doses of prednisone were given for the remainder of the study. If the investigator determined that GVHD was not controlled on Study Day 10, patients discontinued study drug but continued prednisone initially at 1 mg/kg/day; these patients were considered to be treatment failures. In treatment failure cases, physicians subsequently modifiedy prednisone dosage as deemed appropriate.
One hundred and twenty-nine (129) post-bone marrow transplant patients presenting with Grade II iGVHD were enrolled in the randomized, double-blind, placebo-controlled, multi-center clinical trial, which was conducted at 16 bone marrow transplant centers in the United States and France. All patients in the Phase III clinical trial were initially treated with a constant daily dose of high dose (1-2 mg/kg) prednisone, which is the current standard therapy, in combination with an oral dose of either orBec® (8 mg/day) or placebo for the first 10 days. On day 10, if patients were responding to treatment, the high dose prednisone was rapidly tapered and patients continued to receive either orBec® or placebo orally for an additional forty days. […]

Grade II GI GVHD = conditions: capsule form, 8 mg/day divided into 4 equal doses; cited from earlier work
[2] = tested on: patients with Grade II GVHD with gastrointestinal symptoms; conditions: oral BDP 8 mg/day for 30 days as adjuvant to prednisone; cited from earlier work
[3] = tested on: patients with Grade II GVHD with GI symptoms; assay: Phase III trial: survival/mortality through 200 days post-transplant; assay type: in vivo, human
Description: 5. To compare the treatment groups with respect to total deaths and cause of death through 200 days post-transplant.
as §1
7. Patient survival through day 200 post-transplant.
One hundred and twenty-nine (129) post-bone marrow transplant patients presenting with Grade II iGVHD were enrolled in the randomized, double-blind, placebo-controlled, multi-center clinical trial, which was conducted at 16 bone marrow transplant centers in the United States and France. All patients in the Phase III clinical trial were initially treated with a constant daily dose of high dose (1-2 mg/kg) prednisone, which is the current standard therapy, in combination with an oral dose of either orBec® (8 mg/day) or placebo for the first 10 days. On day 10, if patients were responding to treatment, the high dose prednisone was rapidly tapered and patients continued to receive either orBec® or placebo orally for an additional forty days. The primary endpoint of the study was a comparison between the two treatment arms of the time to treatment failure, defined as the need for additional therapies due to uncontrolled signs or symptoms of GVHD. Secondary endpoints in the study included a comparison of the proportion of treatment failures and clinical scores at 10 Days, 30 Days, 50 Days, 60 Days and 80 Days post-randomization, a comparison of cumulative exposure to systemic steroids, as well as a comparison of mortality at Day 200 post-transplant.

[4] = tested on: gastrointestinal GVHD patients; conditions: cited from earlier work
[5] = 200 days post-transplant, safety population, 61 evaluable
[6] = orBec n = 62, p 0.006 vs placebo
[7] = up to 28 days of BDP 8 mg/day, both groups (taking prednisone or not)

CCC(=O)OCC(=O)[C@@]1(OC(=O)CC)[C@@H](C)C[C@H]2[C@@H]3CCC4=CC(=O)C=C[C@]4(C)[C@@]3(Cl)[C@@H](O)C[C@@]21C [BDP, Beclomethasone 17,21-dipropionate]
Cumulative treatment failure rate (Kaplan-Meier estimate) ([1]; Study day 10, P = 0.1538 vs placebo): 0.14
Cumulative events (treatment failures) ([1]; Study day 10): 8
Cumulative treatment failure rate (Kaplan-Meier estimate) ([1]; Study day 30, P = 0.3625 vs placebo): 0.25
Cumulative events (treatment failures) ([1]; Study day 30): 15
Cumulative treatment failure rate (Kaplan-Meier estimate) ([1]; Study day 50, P = 0.0515 vs placebo): 0.31
Cumulative events (treatment failures) ([1]; Study day 50): 18
Cumulative treatment failure rate (Kaplan-Meier estimate) ([1]; Study day 60, P = 0.0558 vs placebo): 0.33
Cumulative events (treatment failures) ([1]; Study day 60): 19
Cumulative treatment failure rate (Kaplan-Meier estimate) ([1]; Study day 80, P = 0.0048 vs placebo): 0.39
Cumulative events (treatment failures) ([1]; Study day 80): 22
time to treatment failure through Day 50 (primary endpoint) versus placebo ([1]; log-rank, p-value 0.1177): did not achieve statistical significance
Treatment Failure Rate at Study Day 80 ([1]; orBec 8 mg/day for 50 days + prednisone, n = 62, p 0.0048 vs placebo): 39%
Treatment Failure Rate at Study Day 50 ([1]; orBec 8 mg/day for 50 days + prednisone, n = 62, p 0.0515 vs placebo): 31%
time to treatment failure through Day 80 (secondary endpoint) versus placebo ([1]; p-value 0.0226): did achieve statistical significance
clinical benefit in treatment of Grade II GI GVHD (Grade II GI GVHD): provide clinical benefit
gastrointestinal symptoms (nausea, vomiting, diarrhea) versus placebo group [2]: all improved
proportion of patients with increased oral caloric intake versus prednisone plus placebo [2]: significantly higher proportion
Survival status: Alive, number of subjects [3, 5]: 56
Survival status: Alive, percent of subjects [3, 5]: 92%
Survival status: Dead, number of subjects [3, 5]: 5
Survival status: Dead, percent of subjects [3, 5]: 8%
reduction in mortality versus placebo group ([3]; Day 200 post-transplant period): 70%
Mortality Rate at 200 Days Post-Transplant [3, 6]: 8%
Mortality at 200 Days Post-Transplant, number of deaths [3, 6]: 5
Day 200 survival rate ([3]; safety population, Z = 2.750, P = 0.0060 vs placebo): 0.91
study drug associated adverse events reported ([4]; BDP 8 mg/day for 28 days): mild metallic taste and mild peri-umbilical heaviness
treatment-related adverse events ([4]; BDP 8 mg/day for 28 days): No significant treatment-related adverse events were observed
timing of response versus historical high dose prednisone ([4]; BDP alone group): appeared to be slower
gastrointestinal symptoms versus baseline [4, 7]: abatement of most gastrointestinal symptoms
oral food intake versus baseline [4, 7]: increase in oral food intake
